Source: patent publication US10807964B2, “Benzothiophene-based selective estrogen receptor downregulators” (The Board of Trustees of the University of Illinois, priority 2015, dated 2020)

Columns and labels:
estrogen receptor = molecular target: T1, estrogen receptor (Homo sapiens, UniProt P03372); test: Western blot of estrogen receptor downregulation (FIG. 4); assay type: cell-based; conditions: 10 nM concentrations
T1 construct: Whole-cell extracts of cultured cells were prepared in lysis buffer; endogenous in cells
T1 sequence (P03372 1-595): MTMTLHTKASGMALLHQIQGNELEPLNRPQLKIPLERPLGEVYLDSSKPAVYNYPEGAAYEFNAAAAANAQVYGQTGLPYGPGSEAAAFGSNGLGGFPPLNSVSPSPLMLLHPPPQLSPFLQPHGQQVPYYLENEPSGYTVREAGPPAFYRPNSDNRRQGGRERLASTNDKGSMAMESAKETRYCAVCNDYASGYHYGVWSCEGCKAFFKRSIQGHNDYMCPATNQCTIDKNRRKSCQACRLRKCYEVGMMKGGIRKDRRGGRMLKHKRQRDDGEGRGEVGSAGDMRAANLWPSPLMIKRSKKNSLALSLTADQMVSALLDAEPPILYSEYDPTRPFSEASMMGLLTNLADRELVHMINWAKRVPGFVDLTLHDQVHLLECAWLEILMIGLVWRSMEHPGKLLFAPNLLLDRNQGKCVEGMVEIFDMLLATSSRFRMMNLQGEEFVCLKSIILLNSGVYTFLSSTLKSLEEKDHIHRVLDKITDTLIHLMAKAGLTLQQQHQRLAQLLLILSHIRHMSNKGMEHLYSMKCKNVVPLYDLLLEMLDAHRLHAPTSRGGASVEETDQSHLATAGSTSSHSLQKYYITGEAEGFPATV
Protocol: Whole-cell extracts of cultured cells were prepared in lysis buffer (200 mmol/L Tris, 1% Triton X-100, 5 mmol/L; EDTA) with protease and phosphatase inhibitor cocktails (1:50, both from Sigma-Aldrich) after scraping from the culture plates. Protein concentration was measured using the Bradford method (Bio-Rad). Proteins were separated under denaturing conditions and blotted onto nitrocellulose membrane (Bio-Rad) using a wet transfer system (Bio-Rad). Images of blots were acquired on a Bio-Rad ChemiDoc System following incubation with SuperSignal West Dura luminol solution (Thermo Fisher Scientific).

[1] = Mouse plasma concentration after oral administration; assay type: in vivo; conditions: average of three mice; for concentration at 0.5 h: 0.5 h after oral gavage at 100 mg/kg; for concentration at 4 h: 4 h after oral gavage at 100 mg/kg
ERα = molecular target: T2, ERα (Homo sapiens, UniProt P03372); test: ER downregulation/degradation by in-cell western (ICW) in MCF-7:WS8 cells; assay type: cell-based; conditions: Table 2; read-out: IC50 of ER downregulation from in-cell western blot experiments
T2 construct: MCF-7:WS8 cells were kept in stripped medium 2 days; endogenous in cells; host or cells: MCF-7:WS8
T2 sequence (P03372 1-595): T1 sequence (P03372 1-595)

MCF-7:Tam1 tumors = test: MCF-7:TAM1 xenograft model of endocrine-resistant ER+ breast cancer; assay type: in vivo, ovariectomized athymic nude mice; conditions: 100 mg/kg daily by oral gavage; GDN-0810 at day 23 after treatment

Compound | Estrogen receptor downregulation, western blot (estrogen receptor) | concentration at 0.5 h [1] [nM] | concentration at 4 h [1] [nM] | further results
O=C(O)/C=C/c1ccc(Oc2c(C(=O)c3ccccc3)sc3cc(O)ccc23)cc1 [Compound 4, (E)-3-(4-((2-Benzoyl-6-hydroxybenzo[b]thiophen-3-yl)oxy)phenyl) acrylic acid] | – | – | – | DC50 (ERα): 5 nM
Cc1ccsc1C(=O)c1sc2cc(O)ccc2c1Oc1ccc(/C=C/C(=O)O)cc1 [Compound 7, (E)-3-(4-((6-Hydroxy-2-(3-methylthiophene-2-carbonyl)benzo[b]thiophen-3-yl)oxy)phenyl) acrylic acid] | downregulate the estrogen receptor | – | – | –
Cc1cccc(C)c1C(=O)c1sc2cc(O)ccc2c1Oc1ccc(/C=C/C(=O)O)cc1 [Compound 11, (E)-3-(4-((2-(2,6-Dimethylbenzoyl)-6-hydroxybenzo[b]thiophen-3-yl)oxy)phenyl) acrylic acid] | – | 1010 | 0.5 | –
Cc1cc(F)cc(C)c1C(=O)c1sc2cc(O)ccc2c1Oc1ccc(/C=C/C(=O)O)cc1 [Compound 20, (E)-3-(4-((2-(4-Fluoro-2,6-dimethylbenzoyl)-6-hydroxybenzo[b]thiophen-3-yl)oxy)phenyl) acrylic acid] | – | 9720 | 164 | –
Cc1cc(Cl)cc(C)c1C(=O)c1sc2cc(O)ccc2c1Oc1ccc(/C=C/C(=O)O)cc1 [Compound 21, (E)-3-(4-((2-(4-Chloro-2,6-dimethylbenzoyl)-6-hydroxybenzo[b]thiophen-3-yl)oxy)phenyl) acrylic acid] | – | – | 858 | –
CC/C(=C(\c1ccccc1)c1ccc(OCCN(C)C)cc1)c1ccccc1 [Tamoxifen] | – | – | – | Regression of tumor size (tumor area reduction) (MCF-7:Tam1 tumors): entirely without effect

Now from value to compound, other results behind:

Estrogen receptor downregulation, western blot (estrogen receptor) | concentration at 0.5 h [1] [nM] | concentration at 4 h [1] [nM] | Compound | further results
downregulate the estrogen receptor | 1240 | 145 | Cc1cc(F)ccc1C(=O)c1sc2cc(O)ccc2c1Oc1ccc(/C=C/C(=O)O)cc1 [Compound 1, (E)-3-(4-((2-(4-Fluoro-2-methylbenzoyl)-6-hydroxybenzo[b]thiophen-3-yl)oxy)phenyl)acrylic acid] | –
downregulate the estrogen receptor | – | – | CCc1ccccc1C(=O)c1sc2cc(O)ccc2c1Oc1ccc(/C=C/C(=O)O)cc1 [Compound 3, (E)-3-(4-((2-(2-Ethylbenzoyl)-6-hydroxybenzo[b]thiophen-3-yl)oxy)phenyl) acrylic acid] | –
downregulate the estrogen receptor | 5580 | 47 | Cc1ccccc1C(=O)c1sc2cc(O)ccc2c1Oc1ccc(/C=C/C(=O)O)cc1 [Compound 5, (E)-3-(4-((6-Hydroxy-2-(2-methylbenzoyl)benzo[b]thiophen-3-yl)oxy)phenyl) acrylic acid] | –
downregulate the estrogen receptor | – | – | Cc1ccc(F)cc1C(=O)c1sc2cc(O)ccc2c1Oc1ccc(/C=C/C(=O)O)cc1 [Compound 6, (E)-3-(4-((2-(5-Fluoro-2-methylbenzoyl)-6-hydroxybenzo[b]thiophen-3-yl)oxy)phenyl) acrylic acid] | –
– | 3870 | 432 | Cc1ccc(C(=O)c2sc3cc(O)ccc3c2Oc2ccc(/C=C/C(=O)O)cc2)c(C)c1 [Compound 12, (E)-3-(4-((2-(2,4-Dimethylbenzoyl)-6-hydroxybenzo[b]thiopben-3-yl)oxy)phenyl) acrylic acid] | –
